Where a name gives a salt, the structure may show the parent alone.
Test system: serum protein
Details: pH 1.0, 30 minutes
Description: Contents of the tubes are set out in TABLE II below:
The four tubes were incubated at room temperature for 30 minutes. At the end of the incubation, 4.0 ml of sodium barbital buffer (0.075 M, pH 8.6) was added and mixed with the contents of each tube. The radioactivity of each tube was measured with a gammacounter.
Each of the tubes was then transferred to an Amicon ultrafiltration cone with a centrifuge tube attachment. The tubes were centrifuged for 45 minutes at 2,200 × g at room temperature. The entire ultrafiltrate was collected and the radioactivity counted.
a = radioactivity before ultrafiltration,
b = the radioactivity in the ultrafiltrate

| Compound | destruction of thyroxine binding sites of the serum proteins |
| --- | --- |
| pepsin | completely destroyed |
| Cl [HCl, Hydrochloric acid] | only partially destroy |

From patent publication US3962039A, “Analytical procedure for thyroid hormones” (Center for Laboratory Medicine, priority 1975, dated 1976)
